These results are taken from PMC6222516 (Molecules : A Journal of Synthetic Chemistry and Natural …, 2018).

By Ki is commonly meant the equilibrium dissociation constant of an inhibitor or competing ligand from its target.

One test deals with adenosine A2A receptor (Homo sapiens, UniProt P29274). The settings on record: read-out: % Inhib. 10 μM A2A.
The target in the next test is T1, adenosine A3 receptor (Homo sapiens, UniProt P0DMS8).
T1 sequence (P0DMS8 1-318): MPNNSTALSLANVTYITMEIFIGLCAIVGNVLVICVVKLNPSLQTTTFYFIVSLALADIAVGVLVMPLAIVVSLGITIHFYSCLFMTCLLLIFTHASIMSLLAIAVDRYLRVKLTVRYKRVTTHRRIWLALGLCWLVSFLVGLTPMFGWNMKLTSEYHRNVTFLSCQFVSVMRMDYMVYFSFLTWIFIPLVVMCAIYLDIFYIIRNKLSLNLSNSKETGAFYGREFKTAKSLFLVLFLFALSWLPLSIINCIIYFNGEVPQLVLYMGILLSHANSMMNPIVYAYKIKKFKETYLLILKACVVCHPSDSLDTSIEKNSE
As to the kind of experiment: Radioligand competition binding assay, adenosine A3 receptor ([3H]-NECA). Further details: PEI (potency efficiency index), ligand efficiency for A3 receptor: dose or concentration left out as unconfirmed. To be noted: for PEI (potency efficiency index), ligand efficiency for A3 receptor: PEI = (inhibition, ratio) / (MW, kD); for inhibition at 10 µM: read-out: % Inhib. 10 μM A3.

Chain of adenosine A2A receptor (P29274 whole entry): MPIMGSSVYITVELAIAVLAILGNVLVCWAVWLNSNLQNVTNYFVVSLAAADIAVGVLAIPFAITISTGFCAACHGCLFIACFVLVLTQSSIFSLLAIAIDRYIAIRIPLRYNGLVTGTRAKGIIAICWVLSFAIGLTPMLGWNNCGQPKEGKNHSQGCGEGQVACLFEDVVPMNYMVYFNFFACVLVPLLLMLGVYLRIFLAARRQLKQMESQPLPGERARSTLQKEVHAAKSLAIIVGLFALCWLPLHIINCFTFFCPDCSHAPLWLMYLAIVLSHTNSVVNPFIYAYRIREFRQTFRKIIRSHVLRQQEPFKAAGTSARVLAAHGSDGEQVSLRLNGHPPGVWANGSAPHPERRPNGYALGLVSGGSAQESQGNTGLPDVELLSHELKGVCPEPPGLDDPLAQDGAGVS

`Nc1ncnc2c1ncn2[C@H]1C[C@H](O)[C@@H](CO)O1` [2′-deoxyadenosine, reference compound]: the inhibition at 10 µM at adenosine A2A receptor was 3 ± 1%. At adenosine A3 receptor, the “PEI (potency efficiency index), ligand efficiency for A3 receptor” value (from here on “PEI (potency efficiency index)”) came to 0.20 and the inhibition at 10 µM was determined as 5 ± 1%.
Take `OC[C@H]1O[C@@H](n2cnc3c(NCCCc4ccccc4)ncnc32)[C@H](O)[C@@H]1O` [Compound 4]: at adenosine A2A receptor, the inhibition at 10 µM was found to be 32 ± 1%. In addition, on adenosine A3 receptor, the Ki turned out to be 7.5 nM; the “PEI (potency efficiency index)” value was 2.54; the inhibition at 10 µM came to 98 ± 1%.
The matching figures for `Nc1ncnc2c1ncn2[C@@H]1O[C@H](CO)[C@@H](O)[C@H]1OCOCCCc1ccccc1` [Compound 12, 2′-O-(3-Phenylpropyleneoxymethyl)-adenosine]: 2 ± 1%, 2210 nM, 1.61 and 67 ± 1%.
As to `CC[C@@H]1Cn2c(c3nc(-c4cc(Cl)cc(Cl)c4Cl)nc-3n(C)c2=O)N1.Cl` [PSB 10 hydrochloride, reference compound], at adenosine A3 receptor, the “PEI (potency efficiency index)” value amounted to 2.51.
